The values that follow come from paper PMC9072222 (RSC Advances, 2019).

The conditions of series [1]: species not given; ref not given; cited from earlier work.
Series [2] concerns db/db mice. The series can be described thus: Modified multiple IPGTTs in fasted db/db mice. It counts as in vivo, mouse. The settings on record: 0.1 mg kg^−1 single dose, IPGTT at 30 hours.
For series [3], the system named is db/db mice. The series can be described thus: Hypoglycemic duration test in non-fasted db/db mice. The conditions noted are these: 0.1 mg kg^−1 s.c., n = 8. It counts as in vivo, mouse.
In series [4] the test system is db/db mice. The series can be described thus: Chronic 8 week in vivo study in db/db mice. The settings on record: Liraglutide 0.1 mg kg^−1 s.c., 8 week treatment, blood. Also on record: species or system mouse.

`CCCCCCCCCCCCCCCC(=O)N[C@@H](CCC(=O)NCCCC[C@H](NC(=O)[C@H](C)NC(=O)[C@H](C)NC(=O)[C@H](CCC(N)=O)NC(=O)CNC(=O)[C@H](CCC(=O)O)NC(=O)[C@H](CC(C)C)NC(=O)[C@H](Cc1ccc(O)cc1)NC(=O)[C@H](CO)NC(=O)[C@H](CO)NC(=O)[C@@H](NC(=O)[C@H](CC(=O)O)NC(=O)[C@H](CO)NC(=O)[C@@H](NC(=O)[C@H](Cc1ccccc1)NC(=O)[C@@H](NC(=O)CNC(=O)[C@H](CCC(=O)O)NC(=O)[C@H](C)NC(=O)[C@@H](N)Cc1cnc[nH]1)[C@@H](C)O)[C@@H](C)O)C(C)C)C(=O)N[C@@H](CCC(=O)O)C(=O)N[C@@H](Cc1ccccc1)C(=O)N[C@H](C(=O)N[C@@H](C)C(=O)N[C@@H](Cc1c[nH]c2ccccc12)C(=O)N[C@@H](CC(C)C)C(=O)N[C@H](C(=O)N[C@@H](CCCNC(=N)N)C(=O)NCC(=O)N[C@@H](CCCNC(=N)N)C(=O)NCC(=O)O)C(C)C)[C@@H](C)CC)C(=O)O` [Liraglutide]: the in vivo half-life in series [1] is given as roughly 8 h. In addition, in the series with db/db mice [2], the “glucose-lowering effect at 30 hours” value is on record as “almost ineffective”. Besides, the “glucose-lowering percentage by AUC0–96 h vs saline” value with db/db mice [3] turned out to be 18.9%. In the series with db/db mice [4], this compound yielded an ALT of 45.1 ± 5.1 IU L^−1, a Cholesterol of 4.1 ± 0.6 mmol/L, an HDL-cholesterol of 2.6 ± 0.1 mmol/L and an LDL-cholesterol of 0.8 ± 0.1 mmol/L. Further, the Triglyceride with db/db mice [4] came to 1.1 ± 0.2 mmol/L.
